Here are results for 38 molecules from patent EP4711368A1 (priority 2023, dated 2024).

The test system of data set [1] is SD rats. Nature of the data set: animal or person. The note with it: iv; for minimal effective dose: Rattus norvegicus; for Onset time / Righting feflex duration / Minimal effective anesthetic dose / Sedation Duration: rat, in vivo. Type of data set: in vivo.
Data set [2] has as its system SD rats. To be noted: rat, in vivo; for MLD: iv.
[3] abbreviates: read-out: Minimal effective analgesic dose.
Setting [4] is: read-out: Minimal effective anesthetic dose.

The structures appear in SMILES notation. Where two headings read alike, the source gives them in different places. Bounds are passed on as bounds.
For Onset time in this document: test concentration or dose not given here.
For Righting feflex duration in this document: test concentration or dose not given here.
For Sedation Duration in this document: test concentration or dose not given here.

As usually defined, the minimal effective dose is the lowest level tested that produced the effect sought. Take `Brc1ccc2c(c1)C(c1ccccn1)=NN1CCN=C1N2` [Compound 323]: the minimal effective dose in the data set on SD rats [1] (setting [3]) came out at 30 mg/kg. Besides, the minimal effective dose in the data set with SD rats [1] (setting [4]) stood at 30 mg/kg. Moreover, in the data set on SD rats [1], the Onset time was 0.95 to 1.07 min and the Righting feflex duration is 13.12 to 21.08 min. In the data set on SD rats [2] (SD), this molecule yielded a TI greater than 1.3 and an MLD greater than 40 mg/kg. As to `Cc1cnc2n1-c1ccc(Br)cc1C(c1ccccn1)=NC2CCOC(=O)C(C)C` (stereo not shown) [Compound 146], in the data set with SD rats [1], the “Minimal effective anesthetic dose” value is recorded as 1.0 mg/kg, the Onset time is 0.3 to 0.6 min, the Righting feflex duration lay in the range of 3.7 to 9.7 min and the “Sedation Duration” value lay in the range of 17.3 to 27.1 min. In the data set with SD rats [2], this molecule gave a TI of 5.0 and an MLD of 5 mg/kg. For the molecule `CC(OC(=O)CN1N=C(c2ccccn2)c2cc(Br)ccc2N(C)C1=O)C1CC1` (stereo not shown) [Compound 250], the minimal effective dose in the data set with SD rats [1] (setting [4]) was determined as 20 mg/kg. Moreover, in the data set with SD rats [1], the Onset time worked out at 0.53 min, the Righting feflex duration came to 13.62 min and the “Sedation Duration” value was found to be 21.55 min. The molecule also came in with a TI in the data set with SD rats [2] (SD) greater than 1.

Molecule `CCN(C(=O)OCN1N=C(c2ccccn2)c2cc(Br)ccc2N(C)C1=O)C(C)C` [Compound 296] returned an MLD in the data set with SD rats [2] (SD) of 15 mg/kg. For the molecule `CN1C(=O)C(CCOC(=O)OC2COC2)N=C(c2ccccn2)c2cc(Br)ccc21` (stereo not shown) [Compound 134], the MLD in the data set on SD rats [2] came to 20 mg/kg. Still for that read-out and setting: then `CCC(CN1N=C(c2ccccn2)c2cc(Br)ccc2N(C)C1=O)OC(=O)C(C)C` (stereo not shown) [Compound 282], with 15 mg/kg.

As for `CC(C)C(=O)OCN1N=C(c2ccccn2)c2cc(Br)ccc2N(C)C1=O` [Compound 287], the minimal effective dose in the data set on SD rats [1] (setting [4]) was 10 mg/kg. Also, in the data set with SD rats [1], the Onset time is 0.32 to 0.43 min, the Righting feflex duration lay within 0.63 to 7.53 min and the “Sedation Duration” value lay in the range of 44.20 to 46.25 min. Further, in the data set on SD rats [2] (SD), the TI is recorded as 3 and the MLD stood at 30 mg/kg. Regarding `CC(C)COC(=O)CN1N=C(c2ccccn2)c2cc(Br)ccc2N(C)C1=O` [Compound 240], in the data set on SD rats [1] (setting [3]), the minimal effective dose came out at 30 mg/kg. Besides, the minimal effective dose in the data set with SD rats [1] (setting [4]) was determined as 10 mg/kg. Besides, in the data set on SD rats [1], the Onset time lay within 0.30 to 0.48 min, the Righting feflex duration was 0.62 to 15.83 min and the “Sedation Duration” value lay in the range of 15.27 to 36.70 min. For the same molecule, in the data set with SD rats [2] (SD), the TI came to 3 and the MLD was 30 mg/kg.

Take `CC(C)n1nnc(CCN2N=C(c3ccccn3)c3cc(Br)ccc3N(C)C2=O)n1` [Compound 267]: in the data set on SD rats [1] (setting [4]), the minimal effective dose amounted to 20 mg/kg. For the same molecule, in the data set with SD rats [1], the Onset time is on record as 0.72 min, the Righting feflex duration is recorded as 0.28 min and the “Sedation Duration” value was 12.33 min. Also, in the data set with SD rats [2] (SD), the TI worked out at 2 and the MLD is recorded as 40 mg/kg. Regarding `COC(=O)CCC1N=C(c2ccccn2)c2cc3nc(C(F)(F)F)sc3cc2N(C)C1=O` (stereo not shown) [Compound 180], the MLD in the data set on SD rats [2] was 40 mg/kg. On to `C=CC(C)(C)OC(=O)CCC1N=C(c2cccc[n+]2[O-])c2cc(Br)ccc2N(C)C1=O` (stereo not shown) [Compound 20], for which, in the data set with SD rats [1], the “Minimal effective anesthetic dose” value was 15.0 mg/kg, the Onset time is 0.3 to 0.5 min, the Righting feflex duration fell in the range of 4.1 to 6.4 min and the “Sedation Duration” value was in the range of 17.0 to 20.3 min. In the data set on SD rats [2], this molecule showed a TI greater than 1.5 and an MLD greater than 22.5 mg/kg. Molecule `CC(C)OC(=O)OCCN1N=C(c2ccccn2)c2cc(Br)ccc2N(C)C1=O` [Compound 302] came in with an MLD with SD rats [2] (SD) of 20 mg/kg.

In the data set on SD rats [2] (SD), `CN1C(=O)N(CCC#N)N=C(c2ccccn2)c2cc(Br)ccc21` [Compound 263] had an MLD of 40 mg/kg. The molecule `CCOC(=O)CN1N=C(c2ccccn2)c2cc(Br)ccc2N=C1SC` [Compound 306] displayed an MLD in the data set with SD rats [2] of 40 mg/kg.

In turn, `COC(=O)CCN1N=C(c2ccccn2)c2cc(Br)ccc2N(C)C1=O` [Compound 259] came in with an MLD in the data set on SD rats [2] (SD) greater than 20 mg/kg. In the data set on SD rats [2] (SD), `CC(C)Oc1cc(CCN2N=C(c3ccccn3)c3cc(Br)ccc3N(C)C2=O)on1` [Compound 272] came in with an MLD of 30 mg/kg. On the same count and under the same terms, then `CN1C(=O)N(CCOC(=O)CCCl)N=C(c2ccccn2)c2cc(Br)ccc21` [Compound 299], with 15 mg/kg.

In the data set with SD rats [2] (SD), `COc1cc(CCN2N=C(c3ccccn3)c3cc(Br)ccc3N(C)C2=O)on1` [Compound 270] displayed an MLD of 29.64 mg/kg. On the same count and under the same terms, then `Cc1c[n+]2c3n1-c1ccc(Br)cc1C(c1ccccn1)=NN3CC2` [Compound 321], with 10 mg/kg. In turn, `CN(C)C(=O)CN1N=C(c2ccccn2)c2cc(Br)ccc2N(C)C1=O` [Compound 258] had an MLD with SD rats [2] (SD) of 40 mg/kg. On the same count and under the same terms, as for `CN1C2=NCCN2N=C(c2ccccn2)c2cc(Br)ccc21` [Compound 324], the figure is greater than 15.7 mg/kg; as for `CC(C)OC(=O)C(C)N1N=C(c2ccccn2)c2cc(Br)ccc2N(C)C1=O` (stereo not shown) [Compound 277], 20 mg/kg; as for `CCC(=O)CN1N=C(c2ccccn2)c2cc(Br)ccc2N(C)C1=O` [Compound 281], 40 mg/kg. For `Cc1cnc2n1-c1ccc(Br)cc1C(c1ccccn1)=NC2CCOCc1ccccc1` (stereo not shown) [Compound 144], in the data set on SD rats [2], the MLD was 3.8 mg/kg. In the data set with SD rats [2] (SD), `CN1C(=O)N(C[n+]2ccccc2)N=C(c2ccccn2)c2cc(Br)ccc21` [Compound 297] had an MLD of 5 mg/kg. The molecule `CC(C)C(=O)OC(CN1N=C(c2ccccn2)c2cc(Br)ccc2N(C)C1=O)C(C)C` (stereo not shown) [Compound 280] gave an MLD with SD rats [2] (SD) of 10 mg/kg. Still for that read-out and setting: as for `CCOC(=O)C(C)N1N=C(c2ccccn2)c2cc(Br)ccc2N(C)C1=O` (stereo not shown) [Compound 276], the figure is 20 mg/kg; as for `CCn1nnc(CN2N=C(c3ccccn3)c3cc(Br)ccc3N(C)C2=O)n1` [Compound 269], greater than 36 mg/kg. Regarding `CN1C(=O)N(CCOCc2ccccc2)N=C(c2ccccn2)c2cc(Br)ccc21` [Compound 285], the MLD with SD rats [2] (SD) is 15 mg/kg.

Consider `CN1C(=O)N(CCc2cc(Br)no2)N=C(c2ccccn2)c2cc(Br)ccc21` [Compound 283], for which, in the data set with SD rats [2] (SD), the MLD is listed as 40 mg/kg. `O=CN1CCN2N=C(c3ccccn3)c3cc(Br)ccc3N=C12` [Compound 322] gave an MLD in the data set with SD rats [2] of 34 mg/kg. Consider `C=CC1(OC(=O)CCN2N=C(c3ccccn3)c3cc(Br)ccc3N(C)C2=O)COC1` [Compound 262], for which the MLD in the data set on SD rats [2] (SD) is recorded as greater than 20 mg/kg. Same read-out and setting: as for `C=CC(=O)OCCN1N=C(c2ccccn2)c2cc(Br)ccc2N(C)C1=O` [Compound 301], the figure is 27.4 mg/kg. Take `CCOC(=O)C(C(C)C)N1N=C(c2ccccn2)c2cc(Br)ccc2N(C)C1=O` (stereo not shown) [Compound 278]: the MLD in the data set with SD rats [2] came to 40 mg/kg. In turn, `CCOc1cc(CCN2N=C(c3ccccn3)c3cc(Br)ccc3N(C)C2=O)on1` [Compound 271] registered an MLD in the data set on SD rats [2] (SD) of 30 mg/kg. In turn, `CCn1nnc(CCN2N=C(c3ccccn3)c3cc(Br)ccc3N(C)C2=O)n1` [Compound 265] returned an MLD in the data set on SD rats [2] of 40 mg/kg. For `CCn1nnnc1CN1N=C(c2ccccn2)c2cc(Br)ccc2N(C)C1=O` [Compound 268], the MLD in the data set with SD rats [2] came out at 40 mg/kg. `Cc1cnc2n1-c1ccc(Br)cc1C(c1ccccn1)=NN2CCOC(=O)OC(C)C` [Compound 316] gave an MLD with SD rats [2] (SD) of 10 mg/kg.
